Consider 12 compounds from patent US11214561B2, “Histone methyltransferase EZH2 inhibitor, preparation method and pharmaceutical use thereof” (ANCUREALL PHARMACEUTICAL (SHANGHAI) CO., LTD., priority 2017, dated 2022).

One assay concerns Karpas-422 (EZH2 Y641N). Kind of assay: In vitro 50% growth inhibition (GI50), MTT/CCK8, Karpas-422 cells. Type of assay: cell-based. Particulars: Homo sapiens, KARPAS-422, 144 h; Drug treatment for 6 days. The source says:
(§1) In the present invention, a representative tumor cell line was selected to determine the cell growth inhibition activity of the present compound. Cell culture conditions and methods were in accordance with the requirements for each cell lines. The cells were subcultured in vitro for less than 3 generations each time, and as required, monoclone purification and identification of cell lines could be carried out.
(§2) The cell culture media used were RPMI1640 (Gibco) comprising 5-20% of fetal bovine serum (Gibco), 1% of double-antibiotic and 2 mM of glutamine.
(§3) Suspension culture cells were collected by centrifugation (1700 rpm, 3 minutes), and the supernatant was discarded and the cells were counted. According to each cell growth cycle, different concentrations of cells were prepared (1-10×10^4 cells per ml) and added to 96-well plates (Corning) with 100 μl per well, and then incubated overnight at 37° C., 5% CO2. The next day, the test compound was added to the cultured cells (2 wells in parallel). The final concentration of the solvent was less than 1/1,000. The cells were further cultured for 6 to 12 days and assayed by MTT.
(§4) The compound was stored at a concentration of 10 mM at −20° C. and diluted to two-fold or 10-fold series prior to use.
(§5) For the suspension culture cells, CCK8 was directly added to 10% of the final concentration. The cells were continually incubated for […].
(§6) The experiments were repeated 3 times and a statistical analysis of data was conducted.

A further assay deals with Pfeiffer (EZH2 A677G). Nature of the assay: In vitro 50% growth inhibition (GI50), MTT/CCK8, Pfeiffer cells. It is filed as cell-based, Human. Particulars: for GI50: Homo sapiens, Pfeiffer, 240 h, Drug treatment for 10 days; for growth inhibitory activity / GI50 level against Pfeiffer, in words: EZH2 A677G mutant cells Pfeiffer.
From the text: as §1, §2, §3, §4, §5, §6

The test system of the next assay is SU-DHL-8 (EZH2 WT). Nature of the assay: In vitro 50% growth inhibition (GI50), MTT/CCK8, SU-DHL-8 cells. To be noted: Homo sapiens, SU-DHL-8, 144 h; Drug treatment for 6 days. It is filed as cell-based.
From the text: as §1, §2, §3, §4, §5, §6

In the case of `C=CC(=O)N1CCC(N(CC)c2cc(-c3ccc(N4CCOCC4)cc3)cc(C(=O)NCc3c(C)cc(C)[nH]c3=O)c2C)C1` (stereo not drawn) [Example 24, N-(4,6-dimethyl-2-oxo-1,2-dihydro-pyridin-3-ylmethyl)-5-[(1-acryloyl-pyrrolidin-3-yl)-ethyl-amino]-4′-(morpholin-4-yl)-4-methyl-biphenyl-3-carboxamide], the GI50 with Karpas-422 (EZH2 Y641N) is 100 to 1000 nM; in the assay on Pfeiffer (EZH2 A677G), 1 to 10 nM; in the assay with SU-DHL-8 (EZH2 WT), more than 1000 nM.

With `C=CC(=O)N1CCC(N(CC)c2cc(-c3ccc(CN4CCC(OC)CC4)cc3)cc(C(=O)NCc3c(C)cc(C)[nH]c3=O)c2C)CC1` [Example 65, N-(4,6-dimethyl-2-oxo-1,2-dihydro-pyridin-3-ylmethyl)-5-[(1-acryloyl-piperidin-4-yl)-ethyl-amino]-4-methyl-4′-(4-methoxypiperidin-1-ylmethyl)-[1,1′-biphenyl]-3-carboxamide], the GI50 with Karpas-422 (EZH2 Y641N) is 10 to 100 nM; in the assay on Pfeiffer (EZH2 A677G), less than 1 nM; in the assay with SU-DHL-8 (EZH2 WT), more than 1000 nM. Further, the “growth inhibitory activity / GI50 level against Pfeiffer, in words” value (“growth inhibitory activity / GI50 level” below) in the assay with Pfeiffer (EZH2 A677G) is “subnanomolar level”.

For `C=CC(=O)N1CCC(N(CC)c2cc(-c3cccc(CN4CCOCC4)c3)cc(C(=O)NCc3c(C)cc(C)[nH]c3=O)c2C)CC1` [Example 70, N-(4,6-dimethyl-2-oxo-1,2-dihydro-pyridin-3-ylmethyl)-5-[(1-acryloyl-piperidin-4-yl)-ethyl-amino]-4-methyl-3′-(morpholin-4-ylmethyl)-[1,1′-biphenyl]-3-carboxamide], the GI50 in the assay with Karpas-422 (EZH2 Y641N) was 10 to 100 nM; in the assay on Pfeiffer (EZH2 A677G), 1 to 10 nM; in the assay on SU-DHL-8 (EZH2 WT) it was more than 1000 nM.

For `C=CC(=O)N1CCC(N(CC)c2cc(-c3cccc(CN4CCCCC4)c3)cc(C(=O)NCc3c(C)cc(C)[nH]c3=O)c2C)C1` (stereo not drawn) [Example 31, N-(4,6-dimethyl-2-oxo-1,2-dihydro-pyridin-3-ylmethyl)-5-[(1-acryloyl-pyrrolidin-3-yl)-ethyl-amino]-4-methyl-3′-(piperidin-1-ylmethyl)-[1,1′-biphenyl]-3-carboxamide], the figures for the GI50 in the assay on Karpas-422 (EZH2 Y641N), with Pfeiffer (EZH2 A677G) and with SU-DHL-8 (EZH2 WT) were 10 to 100 nM, 1 to 10 nM and more than 1000 nM, respectively.

Regarding `C=CC(=O)N1CCC(N(CC)c2cc(-c3ccc(N4CCOCC4)nc3)cc(C(=O)NCc3c(C)cc(C)[nH]c3=O)c2C)C1` (stereo not drawn) [Example 52, N-(4,6-dimethyl-2-oxo-1,2-dihydro-pyridin-3-ylmethyl)-3-[(1-acryloyl-pyrrolidin-3-yl)-ethyl-amino]-2-methyl-5-[6-(morpholin-4-yl)-pyridin-3-yl]-benzamide], the figures for the GI50 in the assay on Karpas-422 (EZH2 Y641N), with Pfeiffer (EZH2 A677G) and in the assay with SU-DHL-8 (EZH2 WT) were 10 to 100 nM, 1 to 10 nM and more than 1000 nM, respectively.

With `C=CC(=O)N1CCC(N(CC)c2cc(-c3ccc(CN4CCN(C5CCOCC5)CC4)cc3)cc(C(=O)NCc3c(C)cc(C)[nH]c3=O)c2C)CC1` [Example 89, N-(4,6-dimethyl-2-oxo-1,2-dihydro-pyridin-3-ylmethyl)-5-[(1-acryloyl-piperidin-4-yl)-ethyl-amino]-4-methyl-4′-[4-(tetrahydropyran-4-yl)-piperazin-1-ylmethyl]-[1,1′-biphenyl]-3-carboxamide], the results for the GI50 with Karpas-422 (EZH2 Y641N), with Pfeiffer (EZH2 A677G) and in the assay on SU-DHL-8 (EZH2 WT) were 10 to 100 nM, less than 1 nM and more than 1000 nM, respectively. Moreover, the “growth inhibitory activity / GI50 level” value with Pfeiffer (EZH2 A677G) was “subnanomolar level”.

Turning to `C=CC(=O)N1CCC(N(CC)c2cc(-c3ccc(CN4CCOCC4)c(F)c3)cc(C(=O)NCc3c(C)cc(C)[nH]c3=O)c2C)C1` (stereo not drawn) [Example 23, N-(4,6-dimethyl-2-oxo-1,2-dihydro-pyridin-3-ylmethyl)-5-[(1-acryloyl-pyrrolidin-3-yl)-ethyl-amino]-3′-fluoro-4′-(morpholin-4-ylmethyl)-4-methyl-biphenyl-3-carboxamide], the figures for the GI50 in the assay with Karpas-422 (EZH2 Y641N), in the assay on Pfeiffer (EZH2 A677G) and with SU-DHL-8 (EZH2 WT) were 10 to 100 nM, 1 to 10 nM and more than 1000 nM, respectively.

Turning to `CC#CC(=O)N1CCC(N(CC)c2cc(Br)cc(C(=O)NCc3c(C)cc(C)[nH]c3=O)c2C)C1` (stereo not drawn) [Example 15], the values for the GI50 with Karpas-422 (EZH2 Y641N), with Pfeiffer (EZH2 A677G) and in the assay with SU-DHL-8 (EZH2 WT) were 10 to 100 nM, 1 to 10 nM and more than 1000 nM, respectively.

Consider `C=CC(=O)N1CCC(N(CC)c2cc(-c3ccc(CN4CCC(OCCOC)CC4)cc3)cc(C(=O)NCc3c(C)cc(C)[nH]c3=O)c2C)CC1` [Example 77, N-(4,6-dimethyl-2-oxo-1,2-dihydro-pyridin-3-ylmethyl)-5-[(1-acryloyl-piperidin-4-yl)-ethyl-amino]-4-methyl-4′-[4-(2-methoxyethyloxy)-piperidin-1-ylmethyl]-[1,1′-biphenyl]-3-carboxamide], for which the values for the GI50 in the assay with Karpas-422 (EZH2 Y641N), with Pfeiffer (EZH2 A677G) and in the assay on SU-DHL-8 (EZH2 WT) were 10 to 100 nM, less than 1 nM and more than 1000 nM, respectively. Moreover, the “growth inhibitory activity / GI50 level” value in the assay with Pfeiffer (EZH2 A677G) is “subnanomolar level”.

With `C=CC(=O)N1CCC(N(CC)c2cc(-c3ccc(CN4CCCCC4)cc3)cc(C(=O)NCc3c(C)cc(C)[nH]c3=O)c2C)C1` (stereo not drawn) [Example 18, N-(4,6-dimethyl-2-oxo-1,2-dihydro-pyridin-3-ylmethyl)-5-[(1-acryloyl-pyrrolidin-3-yl)-ethyl-amino]-4′-(piperidin-1-ylmethyl)-4-methyl-biphenyl-3-carboxamide], the GI50 in the assay with Karpas-422 (EZH2 Y641N) is 10 to 100 nM; in the assay with Pfeiffer (EZH2 A677G), 1 to 10 nM; with SU-DHL-8 (EZH2 WT) it was more than 1000 nM.

On to `C=CC(=O)N1CCC(N(CC)c2cc(-c3ccc(CN4CC(OC)C4)cc3)cc(C(=O)NCc3c(C)cc(C)[nH]c3=O)c2C)CC1` [Example 76, N-(4,6-dimethyl-2-oxo-1,2-dihydro-pyridin-3-ylmethyl)-5-[(1-acryloyl-piperidin-4-yl)-ethyl-amino]-4-methyl-4′-(3-methoxy-1-azetidinylmethyl)-[1,1′-biphenyl]-3-carboxamide], for which the GI50 with Karpas-422 (EZH2 Y641N) was 10 to 100 nM; in the assay on Pfeiffer (EZH2 A677G) it was 1 to 10 nM; in the assay on SU-DHL-8 (EZH2 WT), more than 1000 nM.

On to `C=CC(=O)N1CCC(N(CC)c2cc(-c3ccc(CN4CCOCC4)c(Cl)c3)cc(C(=O)NCc3c(C)cc(C)[nH]c3=O)c2C)CC1` [Example 71, N-(4,6-dimethyl-2-oxo-1,2-dihydro-pyridin-3-ylmethyl)-5-[(1-acryloyl-piperidin-4-yl)-ethyl-amino]-3′-chloro-4-methyl-4′-(morpholin-4-ylmethyl)-[1,1′-biphenyl]-3-carboxamide], for which the values for the GI50 in the assay with Karpas-422 (EZH2 Y641N), with Pfeiffer (EZH2 A677G) and in the assay on SU-DHL-8 (EZH2 WT) were 10 to 100 nM, 1 to 10 nM and more than 1000 nM, respectively.
